The values below are quoted from earlier work in US20120270995A1, “AQUEOUS FORMULATIONS INCLUDING DIOXOLANES AS COUPLING AGENTS” (RHODIA POLIAMIDA E ESPECIALIDADES LTDA, priority 2009, published 2012).

Like-named read-outs stand apart in the source and are kept apart here. Where only a bound is given, the exact number is not on record here.

The conditions of data set [1]: in vivo.
For data set [2] the following is noted: in vivo. The source holds these as a separate data set.
The conditions of data set [3]: in vivo. This is another data set of the same source.
Experiment in data set [4]: not given
This is another data set of the same source.

For data set [5] the following is noted: CMR = carcinogenic/mutagenic/reproductively toxic.

`CCCCOCCOC(C)=O` [Butylglycol acetate]: the Eye irritation result in data set [1] is “weak”. Besides, in data set [2], the Skin irritation result is on record as “weak”. Besides, the Vapour point (20° C.) is on record as 0.4 mmHg. In addition, the Aquatic toxicity in data set [3] was 103.17 mg/L. In addition, the Acute oral toxicity in data set [4] is listed as 2360 mg/kg.

Consider `CCCCOCCO` [Butylglycol], for which, where the note is “20° C.”, the Vapour point was 0.8 mmHg.

For the compound `CCOCCOCCO` [Ethyldiglycol], the Eye irritation result in data set [1] is on record as “severe”. Besides, in data set [2], the Skin irritation result is “severe”. For the same compound, the Vapour point (25° C.) is reported as 0.1 mmHg. Moreover, the Aquatic toxicity in data set [3] was 13 400 mg/l. For the same compound, the Acute oral toxicity in data set [4] was 5500 mg/kg.

As for `CCOCCOC(C)=O` [Ethylglycol acetate], the Eye irritation entry in data set [1] is reported as “severe”. For the same compound, in data set [2], the Skin irritation entry was “severe”. Moreover, where the note is “20° C.”, the Vapour point is reported as 2.0 mmHg. Moreover, in data set [3], the Aquatic toxicity is 244.66 mg/L. Besides, in data set [5], the CMR entry is “cat. 2”. In addition, the Acute oral toxicity in data set [4] is recorded as 2900 mg/kg.

`CCOCCO` [Ethylglycol]: the Eye irritation entry in data set [1] is on record as “weak”. The Skin irritation result in data set [2] is given as “moderate”. Further, the Vapour point (25° C.) is given as 5.3 mmHg. In data set [3], the Aquatic toxicity was 5000 mg/L. In data set [5], the CMR entry is “cat. 2”. In addition, the Acute oral toxicity in data set [4] was 3000 mg/kg.

For `CC1(C)OCC(CO)O1` (stereo not drawn) [Solketal, 2,2-Dimethyl-1,3-dioxolane-4-methanol], the Eye irritation entry in data set [1] was “moderate”. Further, the Skin irritation result in data set [2] is given as “moderate”. Moreover, where the note is “37.8° C.”, the Vapour point is 52.0 mmHg. Moreover, the Aquatic toxicity in data set [3] was over 1000 mg/L. The Acute oral toxicity in data set [4] is recorded as 7000 mg/kg.

As for Methylglycol, in data set [1], the Eye irritation result was “severe”. Besides, in data set [2], the Skin irritation entry is given as “weak”. For the same compound, the Vapour point (20° C.) was 6.2 mmHg. Further, the Aquatic toxicity in data set [3] is 18 000 mg/l. In data set [4], the Acute oral toxicity is on record as 18 000 mg/kg.
